Source: patent US9302999B2, “Substituted triazoles as herbicides” (E. I. DU PONT DE NEMOURS AND COMPANY, priority 2012, dated 2016)

How the values were obtained:
Assay type in all cases: in vivo
[1] = system: crabgrass, large (large crabgrass, Digitaria sanguinalis); assay: Test A pre-/postemergence: crabgrass, large
Outline: (§1)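 Seeds were sown in loam/sand blend and sprayed preemergence (directed soil spray) and, simultaneously, postemergence at 2–10 cm, one- to two-leaf stage, using compounds in non-phytotoxic solvent with surfactant. After ~10 days in greenhouse, injury was rated visually versus untreated controls, 0 (no effect) to 100 (complete control).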

[2] = system: foxtail, giant (giant foxtail, Setaria faberii); assay: Test A pre-/postemergence: foxtail, giant
Outline: as §1

[3] = system: pigweed (Amaranthus retroflexus); assay: Test A pre-/postemergence: pigweed
Outline: as §1

[4] = system: velvetleaf (Abutilon theophrasti); assay: Test A pre-/postemergence: velvetleaf
Outline: as §1

[5] = system: wheat (Triticum aestivum); assay: Test A pre-/postemergence: wheat
Outline: as §1

[6] = system: barnyardgrass (Echinochloa crus-galli); assay: Test B flooded paddy: barnyardgrass; conditions: Flood, applied to paddy water at 2-leaf stage, visually evaluated after 13 to 15 days
Outline: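 Response scored visually, 0–100 relative to controls, 13–15 days after the compound was applied into paddy water; plants were at the 2-leaf stage in pots kept flooded to 3 cm.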

[7] = system: blackgrass (Alopecurus myosuroides); assay: Test C pre-/postemergence: blackgrass
Outline: (§2)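 Preemergence on seeds in loam/sand, postemergence on 2–18 cm (1–4-leaf) plants in peat-based medium; compounds in non-phytotoxic solvent with surfactant. After 13–15 days in greenhouse, visual rating versus controls, 0 (no effect) to 100 (complete control).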

[8] = system: morningglory (Ipomoea coccinea); assay: Test C pre-/postemergence: morningglory
Outline: as §2

[9] = system: ragweed (common ragweed, Ambrosia elation); assay: Test C pre-/postemergence: ragweed
Outline: as §2

[10] = system: chickweed (common chickweed, Stellaria media); assay: Test C postemergence: chickweed
Outline: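 Greenhouse pot test; foliar postemergence treatment at 1- to 4-leaf stage. Rated visually at 13 to 15 days on a 0–100 control scale relative to untreated plants.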

[11] = Postemergence, 125 g ai/ha, 0 to 100 scale, 0 is no effect, 100 is complete control
[12] = Postemergence, 500 g ai/ha, 0 to 100 scale, 0 is no effect, 100 is complete control
[13] = Preemergence, 125 g ai/ha, 0 to 100 scale where 0 is no effect and 100 is complete control
[14] = Preemergence, 500 g ai/ha, 0 to 100 scale (0 no effect, 100 complete control)
[15] = Postemergence, 31 g ai/ha, scale 0 to 100 (0 no effect, 100 complete control)
[16] = Postemergence, 62 g ai/ha, scale 0 to 100 (0 no effect, 100 complete control)
[17] = Postemergence, 125 g ai/ha, scale 0 to 100, 0 no effect, 100 complete control
[18] = Postemergence, 250 g ai/ha, scale 0 to 100
[19] = Preemergence, 31 g ai/ha, scale 0 (no effect) to 100 (complete control)
[20] = Preemergence, 62 g ai/ha, scale of 0 to 100, 0 is no effect, 100 is complete control
[21] = Preemergence, 125 g ai/ha, scale 0 to 100, 0 no effect, 100 complete control
[22] = Preemergence, 250 g ai/ha, scale 0 to 100, 0 no effect, 100 complete control
[23] = Postemergence, 250 g ai/ha, scale 0 to 100 (0 no effect, 100 complete control)
[24] = 31 g ai/ha, scale 0 to 100 (0 no effect, 100 complete control)
[25] = 62 g ai/ha, scale 0 to 100 (0 no effect, 100 complete control)
[26] = 125 g ai/ha, scale 0 to 100, 0 no effect, 100 complete control

Compound: CCCc1nn(-c2ccc(F)c(F)c2)nc1Oc1ccnc(C(F)(F)F)c1 [Compound 172]
- Plant response rating, Crabgrass, Large [1, 11]: 90
- Crabgrass, Large plant response rating [1, 12]: 100
- Plant response rating, Crabgrass, Large [1, 13]: 100
- Plant response rating, Crabgrass, Large [1, 14]: 100
- Plant response rating, Foxtail, Giant [2, 11]: 90
- Foxtail, Giant plant response rating [2, 12]: 90
- Plant response rating, Foxtail, Giant [2, 13]: 100
- Plant response rating, Foxtail, Giant [2, 14]: 100
- Plant response rating, Pigweed [3, 11]: 100
- Pigweed plant response rating [3, 12]: 100
- Plant response rating, Pigweed [3, 13]: 100
- Plant response rating, Pigweed [3, 14]: 100
- Plant response rating, Velvetleaf [4, 11]: 90
- Velvetleaf plant response rating [4, 12]: 100
- Plant response rating, Velvetleaf [4, 13]: 80
- Plant response rating, Velvetleaf [4, 14]: 90
- Plant response rating, Wheat [5, 11]: 40
- Wheat plant response rating [5, 12]: 50
- Plant response rating, Wheat [5, 13]: 50
- Plant response rating, Wheat [5, 14]: 70
- Plant response rating, Barnyardgrass (0 to 100 scale, 0 is no effect, 100 is complete control) ([6]; 250 g ai/ha): 80
- Plant response rating, Blackgrass [7, 15]: 10
- Plant response rating, Blackgrass [7, 16]: 25
- Plant response rating, Blackgrass [7, 17]: 60
- Plant response rating, Blackgrass [7, 18]: 60
- Plant response rating, Blackgrass [7, 19]: 90
- Plant response rating, Blackgrass [7, 20]: 95
- Plant response rating, Blackgrass [7, 21]: 95
- Plant response rating, Blackgrass [7, 22]: 95
- Plant response rating, Morningglory [8, 15]: 65
- Plant response rating, Morningglory [8, 16]: 80
- Plant response rating, Morningglory [8, 23]: 80
- Plant response rating, Morningglory [8, 19]: 30
- Plant response rating, Morningglory [8, 20]: 35
- Plant response rating, Morningglory [8, 21]: 55
- Plant response rating, Morningglory [8, 22]: 70
- Plant response rating, Ragweed [9, 15]: 75
- Plant response rating, Ragweed [9, 16]: 75
- Plant response rating, Ragweed [9, 17]: 80
- Plant response rating, Ragweed [9, 23]: 80
- Plant response rating, Ragweed [9, 19]: 35
- Plant response rating, Ragweed [9, 20]: 40
- Plant response rating, Ragweed [9, 21]: 80
- Plant response rating, Ragweed [9, 22]: 85
- Plant response rating, Chickweed [10, 24]: 65
- Plant response rating, Chickweed [10, 25]: 85
- Plant response rating, Chickweed [10, 26]: 90
- Plant response rating, Chickweed ([10]; 250 g ai/ha, scale 0 to 100): 90

Compound: CCCc1nn(-c2ccc(F)cc2F)nc1Oc1ccnc(C(F)(F)F)c1 [Compound 179]
- Plant response rating, Crabgrass, Large [1, 11]: 90
- Crabgrass, Large plant response rating [1, 12]: 90
- Plant response rating, Crabgrass, Large [1, 13]: 100
- Plant response rating, Crabgrass, Large [1, 14]: 100
- Plant response rating, Foxtail, Giant [2, 11]: 90
- Foxtail, Giant plant response rating [2, 12]: 90
- Plant response rating, Foxtail, Giant [2, 13]: 100
- Plant response rating, Foxtail, Giant [2, 14]: 100
- Plant response rating, Pigweed [3, 11]: 100
- Pigweed plant response rating [3, 12]: 100
- Plant response rating, Pigweed [3, 13]: 100
- Plant response rating, Pigweed [3, 14]: 100
- Plant response rating, Velvetleaf [4, 11]: 90
- Velvetleaf plant response rating [4, 12]: 100
- Plant response rating, Velvetleaf [4, 13]: 80
- Plant response rating, Velvetleaf [4, 14]: 100
- Plant response rating, Wheat [5, 11]: 30
- Wheat plant response rating [5, 12]: 40
- Plant response rating, Wheat [5, 13]: 20
- Plant response rating, Wheat [5, 14]: 50
- Plant response rating, Barnyardgrass (0 to 100 scale, 0 is no effect, 100 is complete control) ([6]; 125 g ai/ha): 0
- Plant response rating, Blackgrass [7, 15]: 30
- Plant response rating, Blackgrass [7, 16]: 50
- Plant response rating, Blackgrass [7, 17]: 55
- Plant response rating, Blackgrass [7, 18]: 60
- Plant response rating, Blackgrass [7, 19]: 80
- Plant response rating, Blackgrass [7, 20]: 100
- Plant response rating, Blackgrass [7, 21]: 100
- Plant response rating, Blackgrass [7, 22]: 100
- Plant response rating, Morningglory [8, 15]: 65
- Plant response rating, Morningglory [8, 16]: 80
- Plant response rating, Morningglory [8, 17]: 80
- Plant response rating, Morningglory [8, 23]: 90
- Plant response rating, Morningglory [8, 19]: 5
- Plant response rating, Morningglory [8, 20]: 40
- Plant response rating, Morningglory [8, 21]: 55
- Plant response rating, Morningglory [8, 22]: 65
- Plant response rating, Ragweed [9, 15]: 50
- Plant response rating, Ragweed [9, 16]: 55
- Plant response rating, Ragweed [9, 17]: 60
- Plant response rating, Ragweed [9, 23]: 75
- Plant response rating, Ragweed [9, 19]: 40
- Plant response rating, Ragweed [9, 20]: 40
- Plant response rating, Ragweed [9, 21]: 45
- Plant response rating, Ragweed [9, 22]: 45
- Plant response rating, Chickweed [10, 24]: 75
- Plant response rating, Chickweed [10, 25]: 80
- Plant response rating, Chickweed [10, 26]: 85
- Plant response rating, Chickweed ([10]; 250 g ai/ha, scale 0 to 100): 95

Compound: CCc1nn(-c2ccc(C(F)(F)F)c(F)c2)nc1Oc1ccnc(C(F)(F)F)c1 [Compound 183]
- Plant response rating, Crabgrass, Large [1, 11]: 90
- Crabgrass, Large plant response rating [1, 12]: 90
- Plant response rating, Crabgrass, Large [1, 13]: 100
- Plant response rating, Crabgrass, Large [1, 14]: 100
- Plant response rating, Foxtail, Giant [2, 11]: 90
- Foxtail, Giant plant response rating [2, 12]: 90
- Plant response rating, Foxtail, Giant [2, 13]: 100
- Plant response rating, Foxtail, Giant [2, 14]: 100
- Plant response rating, Pigweed [3, 11]: 100
- Pigweed plant response rating [3, 12]: 100
- Plant response rating, Pigweed [3, 13]: 100
- Plant response rating, Pigweed [3, 14]: 100
- Plant response rating, Velvetleaf [4, 11]: 100
- Velvetleaf plant response rating [4, 12]: 100
- Plant response rating, Velvetleaf [4, 13]: 70
- Plant response rating, Velvetleaf [4, 14]: 80
- Plant response rating, Wheat [5, 11]: 30
- Wheat plant response rating [5, 12]: 40
- Plant response rating, Wheat [5, 13]: 30
- Plant response rating, Wheat [5, 14]: 60
- Plant response rating, Barnyardgrass (0 to 100 scale, 0 is no effect, 100 is complete control) ([6]; 125 g ai/ha): 30
- Plant response rating, Blackgrass [7, 15]: 10
- Plant response rating, Blackgrass [7, 16]: 20
- Plant response rating, Blackgrass [7, 17]: 60
- Plant response rating, Blackgrass [7, 18]: 60
- Plant response rating, Blackgrass [7, 19]: 80
- Plant response rating, Blackgrass [7, 20]: 95
- Plant response rating, Blackgrass [7, 21]: 95
- Plant response rating, Blackgrass [7, 22]: 100
- Plant response rating, Morningglory [8, 15]: 98
- Plant response rating, Morningglory [8, 16]: 98
- Plant response rating, Morningglory [8, 17]: 100
- Plant response rating, Morningglory [8, 23]: 100
- Plant response rating, Morningglory [8, 19]: 30
- Plant response rating, Morningglory [8, 20]: 45
- Plant response rating, Morningglory [8, 21]: 70
- Plant response rating, Morningglory [8, 22]: 95
- Plant response rating, Ragweed [9, 15]: 65
- Plant response rating, Ragweed [9, 16]: 80
- Plant response rating, Ragweed [9, 17]: 90
- Plant response rating, Ragweed [9, 23]: 95
- Plant response rating, Ragweed [9, 19]: 50
- Plant response rating, Ragweed [9, 20]: 50
- Plant response rating, Ragweed [9, 21]: 95
- Plant response rating, Ragweed [9, 22]: 95
- Plant response rating, Chickweed [10, 24]: 75
- Plant response rating, Chickweed [10, 25]: 75
- Plant response rating, Chickweed [10, 26]: 80
- Plant response rating, Chickweed ([10]; 250 g ai/ha, scale 0 to 100): 98
